Source: patent EP1060742A1, “INTERSTITIAL ADENOSINE LEVEL-ELEVATING AGENTS” (priority 1998, dated 1999)

Tests used:
[1] = tested on: cardiomyopathic Syrian hamsters (Bio 14.6 strain); test: Heart failure and myocardiopathy test in cardiomyopathic hamsters, oral dosing for 87 days; assay type: in vivo, hamster; settings: for AST (GOT) level / LDH level: day 30, 60mg/kg/day
Description: Male aged-matched normal healthy golden hamsters (F1B strain) were used as control animals. These hamsters were purchased from Biobreeders Inc. Throughout the test period, the animals were housed in stainless steel cage in a temperature (23 ± 1C° )controlled room where a daily light-dark cycle was maintained artificially at 12 hours intervals. The animals were fed with commercially available pellet (CE-2, CLEA Japan, Inc.) and provided adde libitum with feed pellets and water. Incidentally, after they were purchased, the animals were acclimated to the above environment at least one week before subjected to experiments.
The test compound was suspended in a 0.5% sodium carboxymethyl cellulose (CMC-Na) solution. This dosing solution was orally administered for 87 days at dosages of 30mg/kg/day and 60mg/kg/day and a dose volume of 20ml/kg.
Captopril was used as a control compound. The compound was similarly suspended in a 0.5% CMC-Na solution and was orally administered for 87 days at a dosage of 60mg/kg/day and a dose volume of 20ml/kg.
A group of animals administered with a 0.5% CMC-Na solution served as a vehicle control group. The solution was administered once daily from Monday through Friday but not on Saturdays and Sundays.
(§1) Body weight was recorded on every Monday and Thursday after the administration of the test compound. […]
Blood samples were collected before administration of the test compound, and 45 and 88 days after administration. The blood samples were collected from venous plexus of eyegrounds under anesthesia by ether. Blood plasma was separated from the samples and plasma norepinephrine (NE) levels were measured using a catecholamine assay system.
Myocardial tissue preparations were prepared 88 days after the administration was started. The animals were sacrificed by exsanguination under anesthesia by ether. Chests were opened and hearts extirpated. Weight of the hearts was measured and the hearts were fixed in a 10% buffered neutral formaldehyde solution. Bases of the hearts were sliced to a 3mm thickness and formed into paraffin slices with respect to the side of the base using ordinary methods. The slices were stained with kossa, hematoxylin/eosin (H&E) and H&E/aniline blue stains. The preparations of the hearts so prepared were measured in area for regions of cardiac fibrosis, mineral deposition, myocardial necrosis, and macrophage infiltration, using an image analyzing system (Mac SCOPE Ver.2.1, Mitsuya Shoji).
(§2) Measurements were expressed in mean ± S.E., and tests for significant differences between the respective groups were performed using Dunnett's multiple comparison test.

[2] = tested on: cardiomyopathic Syrian hamsters (Bio 14.6 strain); test: as above; assay type: in vivo, hamster; settings: Bio 14.6 hamsters, 30, 60 and 88 days, all tests other than AST (GOT) and LDH on day 30 at 60mg/kg/day
[3] = tested on: normal healthy golden hamsters (F1B strain); settings: hamster, in vivo
Description: Male cardiomyopathic Syrian hamsters (Bio 14.6 strain) aged 7 weeks were used. Male aged-matched normal healthy golden hamsters (F1B strain) were used as control animals. These hamsters were purchased from Biobreeders Inc. Throughout the test period, the animals were housed in stainless steel cage in a temperature (23 ± 1C° )controlled room where a daily light-dark cycle was maintained artificially at 12 hours intervals. The animals were fed with commercially available pellet (CE-2, CLEA Japan, Inc.) and provided adde libitum with feed pellets and water. […]
as §1
Blood samples were collected before administration of the test compound, and 45 and 88 days after administration. […] Blood plasma was separated from the samples and plasma norepinephrine (NE) levels were measured using a catecholamine assay system.
Myocardial tissue preparations were prepared 88 days after the administration was started. […] Weight of the hearts was measured and the hearts were fixed in a 10% buffered neutral formaldehyde solution. […] The preparations of the hearts so prepared were measured in area for regions of cardiac fibrosis, mineral deposition, myocardial necrosis, and macrophage infiltration, using an image analyzing system (Mac SCOPE Ver.2.1, Mitsuya Shoji). […]

male ICR mice = test: Toxicity test, subcutaneous administration to mice, observed for one week; assay type: in vivo
mice = test: Toxicity test, oral administration to fasted mice, observed for two weeks, LD50 by the Richfield-Wilcockson method; assay type: in vivo; settings: 0.025N hydrochloric acid-saline solution, after 16-hour fasting, observed for two weeks
Description: (§3) LD50 was determined using the Richfield-Wilcockson method.

[4] = as above; assay type: in vivo; settings: mouse, in vivo, mice, Richfield-Wilcockson method
Description: as §3

[5] = tested on: myocardial adenosine level; test: Effects on myocardial adenosine level in extirpated, Langendorff-perfused rat hearts (HPLC); settings: 10^-5 M, 15-minute perfusion, compared to vehicle control group (0.04% DMSO)
Description: Male Sprange-Dawley rats aged 7 to 8 weeks were used. Hearts were extirpated under anesthesia by pentobarbital (50mg/kg, intra-abdominally injected) and were suspended in a Langendorff's apparatus.
The hearts were then frozen with liquid nitrogen. 10 equivalents of 0.6N perchloric acid were added to the frozen tissue and the tissue was homogenized and neutralized by 1N KOH and was then centrifuged. After centrifugation, the level of adenosine in the supernatant was measured by HPLC.
Propranol was used as a control compound for the test and 0.04% DMSO solution was used as a vehicle control.
as §2

[6] = Bio 14.6 hamsters, 88 days after administration, 60mg/kg/day, compared to vehicle control group
[7] = Bio 14.6 hamsters, day 88, 60mg/kg/day oral
[8] = Bio 14.6 hamsters, day 88, 60mg/kg/day, image analysis
[9] = Bio 14.6 hamsters, day 88, 30mg/kg/day, image analysis

C[C@H](CS)C(=O)N1CCC[C@H]1C(=O)O [captopril, reference compound]
plasma NE level [1, 6]: The same results were obtained
AST (GOT) level ([1]; Bio 14.6 hamsters): tendency of decrease
LDH level ([1]; Bio 14.6 hamsters): tendency of decrease
relative heart weight [1, 7]: The same results were obtained
area of cardiac lesions [1, 8]: significant decrease in area
area of regions of fibrosis [1, 8]: significant decrease in area
area of regions of macrophage infiltration [1, 8]: significant decrease in area
area of regions of myocardial necrosis [1, 8]: significant decrease in area

COC(=O)C12C(O)C(C(=O)Cc3ccccn3)=NN1C(c1ccccc1)C=CC2c1ccccc1 (centres unmarked) [compound No.1, 2,5-diphenyl-7-hydroxy-6-methoxycarbonyl-8-(2-pyridyl)acetyl-1,9-diazabicyclo[4.3.0]-nona-3,8-dien]
clinical chemistry tests (all the other tests) [2]: no effect
clinical chemistry tests [3]: no effect
clinical observations related to treatment (male ICR mice; mouse, in vivo, sc): no clinical observations
mortality (male ICR mice; subcutaneous, 10ml/kg of a 10% aqueous polyethylene glycol 400 solution, observed for one week): no mortality
clinical observations (mice): no clinical observations
mortality (mice): no mortality
LD50 at 336 h [4]: > 100 mg/kg
plasma NE level ([1]; 45 days after administration, each dosage, compared to vehicle control groups, strain not specified in the sentence (Fig.4)): did not have significant effects
plasma NE level [1, 6]: significantly lower level
plasma NE level ([1]; Bio 14.6 hamsters, 88 days after administration, across 30 and 60mg/kg/day): decrease in a dose-dependent manner
AST (GOT) level ([1]; Bio 14.6 hamsters): tendency of decrease
LDH level ([1]; Bio 14.6 hamsters): tendency of decrease
relative heart weight ([1]; Bio 14.6 hamsters, day 88, 30mg/kg/day oral): significant suppression of increase
area of cardiac legions (sum of the areas of necrosis, macrophage infiltration and fibrosis) [1, 9]: significant decrease in area
area of regions of fibrosis [1, 9]: significant decrease in area
area of regions of macrophage infiltration [1, 9]: significant decrease in area
area of regions of myocardial necrosis [1, 9]: significant decrease in area
relative heart weight [1, 7]: significant suppression of increase
area of regions of macrophage infiltration [1, 8]: significant decrease in area
area of regions of myocardial necrosis [1, 8]: significant decrease in area
relative liver weight ([1]; Bio 14.6 hamsters, day 88, oral): did not have effects
changes in body weight ([1]; Bio 14.6 hamsters, each dosage (30mg/kg/day and 60mg/kg/day), oral): did not affect
myocardial adenosine level [5]: increased three-fold

CC(C)NCC(O)COc1cccc2ccccc12 (centres unmarked) [propranol, reference compound]
myocardial adenosine level [5]: no significant difference
